This is an account of results in patent publication US20240285727A1, “NOVEL THERAPEUTIC PEPTIDES FOR NEURODEGENERATION” (UNIVERSITY OF SOUTHERN CALIFORNIA, priority 2021, published 2024).

Ends that are not written are not given here.

For series [1], the system named is C57BL/6J mice fed a high fat diet. The experiment in a line: SHMOOSE in vivo: daily IP injections to mice fed a high fat diet, two weeks. Also noted: species or system mouse. The text has this: The inventors also injected SHMOOSE intraperitoneally (IP) to 12-week-old C57BL/6J mice fed a high fat diet (i.e., a mild metabolic perturbation). At the conclusion of the two-week study, the inventors harvested brain and liver for RNA-Seq. As the inventors observed for SHMOOSE.D47N carriers and in in vitro experiments, 367 differentially expressed genes under a p adjusted value of 0.05 enriched mitochondrial and ribosomal terms in the liver (FIG. 3C). That is, liver expression differences were observed after SHMOOSE IP injections. Brain hypothalamus expression differences were also observed after SHMOOSE IP injections. Further, cortical expression differences were observed after SHMOOSE IP injections. However, while the inventors observed global gene expression changes as illustrated by PCA in the mouse cortex and hypothalamus, most enriched terms included central nervous system-related terms, not ribosomes nor mitochondrial specifics (FIG. 17). Furthermore, brain hippocampus expression differences were observed after SHMOOSE IP injections.
To examine the transcriptomes of mice treated with SHMOOSE, 12-week-old male […] mice were obtained from The Jackson Laboratory. Mice were fed a high fat diet for 10 days (60% total calories) prior to initiation of SHMOOSE daily IP injections (2.5 mg/kg). No more than 60 ul of volume were injected IP. […]

Series [2] in a line: SHMOOSE pharmacokinetics after intraperitoneal injection. The series is classed as in vivo, mouse. The conditions noted are these: IP injected mice. As for the experimental part:
SHMOOSE pharmacokinetics was studied, where 2.5 mg SHMOOSE/kg in 25-week old C57/BI6 mice were intraperitoneally injected.

The subject of series [3] is SH-SY5Y cells. The experiment in a line: Amyloid beta toxicity assay (LIVE/DEAD viability). The series is classed as cell-based. Conditions: neuronal cells stressed with oligomerized amyloid beta 42 (1 uM); 10 uM peptide. As for the experimental part: SH-SY5Y cells were differentiated for 4 days, incubated with 10 uM SHMOOSE or SHMOOSE.D47N for 24 hours followed by another incubation with SHMOOSE or SHMOOSE.D47N with or without oligomerized 1 uM amyloid beta 42 (CPC Scientific), prepared as formerly described. A two-color fluorescence cell viability assay (LIVE/DEAD Viability/Cytotoxicity Kit; Invitrogen (cat. L3224) was used to distinguish live cells from dead cells after […] and amyloid beta 42 treatment. The ratio of live to dead cells can be quantified since live cells retain the Calcein AM dye and dead cells with damaged membranes permit entry of the ethidium homodimer dye.

The target of series [4] is T1, mitofilin (Homo sapiens, UniProt Q16891).
T1 construct: purchased OriGene
T1 sequence (Q16891 34-758): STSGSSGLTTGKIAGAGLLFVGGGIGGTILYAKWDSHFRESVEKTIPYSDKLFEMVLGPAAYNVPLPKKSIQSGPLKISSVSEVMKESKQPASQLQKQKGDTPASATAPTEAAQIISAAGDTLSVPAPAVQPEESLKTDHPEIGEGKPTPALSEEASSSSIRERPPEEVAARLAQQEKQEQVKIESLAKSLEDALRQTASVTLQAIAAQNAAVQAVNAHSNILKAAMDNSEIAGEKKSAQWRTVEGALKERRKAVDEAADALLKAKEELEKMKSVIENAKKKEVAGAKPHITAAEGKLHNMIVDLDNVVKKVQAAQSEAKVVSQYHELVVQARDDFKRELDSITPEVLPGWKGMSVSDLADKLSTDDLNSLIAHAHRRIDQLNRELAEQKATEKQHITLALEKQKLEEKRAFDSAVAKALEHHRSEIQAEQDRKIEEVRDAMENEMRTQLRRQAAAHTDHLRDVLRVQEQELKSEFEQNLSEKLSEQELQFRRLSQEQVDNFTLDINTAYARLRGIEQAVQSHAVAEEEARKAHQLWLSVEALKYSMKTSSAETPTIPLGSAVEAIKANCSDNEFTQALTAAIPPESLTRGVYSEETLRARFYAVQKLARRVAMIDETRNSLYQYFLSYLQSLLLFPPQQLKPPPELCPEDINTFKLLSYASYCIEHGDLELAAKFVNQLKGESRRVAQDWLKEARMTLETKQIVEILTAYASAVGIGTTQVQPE
In words: SHMOOSE-mitofilin protein interaction (co-immunoprecipitation, reciprocal dot blot). The series is classed as binding. The conditions noted are these: reciprocal dot-based immunoblots, recombinant proteins. As for the experimental part:
To identify the SHMOOSE interactome, multiple experiments were conducted. First, 1.5 nmol of SHMOOSE was spiked into 1 mg SH-SY5Y cell lysate for 6 hours at 4° C. Lysates were prepared using Thermo Pierce CoIP lysis buffer with 1× Thermo protease inhibitor cocktail and 1 mM PMSF. Briefly, cells were washed with ice-cold DPBS twice, lysed for 15 minutes on ice, and centrifuged for 10 minutes at 12,000 RCF at 4° C. The rationale for conducting this experiment was to ensure identical protein amounts between conditions and avoid differential protein expression caused by SHMOOSE treatment to cells. After 6 hours, SHMOOSE was immunoprecipitated from samples using Dynabeads A conjugated to 5 ug of custom c-terminus SHMOOSE antibody. As a negative control, SHMOOSE-spiked lysates were also immunoprecipitated using 5 ug rabbit IgG. Proteins were eluted from beads using 50 mM Glycine pH 2.8, and eluents were pH neutralized using Tris HCl pH 7.5. Complete eluents were then processed for protein identification using LC-MS. […] Statistical analysis of MaxQuant label-free quantitation data was performed with the artMS Bioconductor package, which performs the relative quantification of protein abundance using the MSstats Bioconductor package (default parameters). […]
In general terms: A western blot detects proteins with antibodies after separation by electrophoresis.

The test system of series [5] is SH-SY5Y cells. The experiment in a line: Seahorse assay (oxygen consumption rate). The series is classed as cell-based. As for the experimental part: SH-SY5Y Cells were Plated into 96-Well Plates at a Density of 10,000 Cells. The following day, cells were differentiated for a total of 4 days. Thereafter, SHMOOSE or SHMOOSE.D47N were incubated for 24 hours, followed by cell real-time oxygen consumption rates measurements using XF96 Extracellular Flux Analyzer (Seahorse Bioscience). ATP turnover and maximum respiratory capacity were calculated after challenging cells with oligomycin and FCCP (carbonyl cyanide 4-[trifluoromethoxy]phenylhydrazone). Additionally, glycolytic rate was determined using extracellular acidification rate (ECAR) and individually reported relative to basal level in percentage. All readings were normalized to total DNA content using Hoechst 33342.

The target of series [6] is ATP5A1 (UniProt P25705 44-553, limits assumed). The experiment in a line: binding of SHMOOSE to ATP5 subunits (FIG. 9C/9D); method not described.
Sequence of ATP5A1 (P25705 44-553 limits assumed): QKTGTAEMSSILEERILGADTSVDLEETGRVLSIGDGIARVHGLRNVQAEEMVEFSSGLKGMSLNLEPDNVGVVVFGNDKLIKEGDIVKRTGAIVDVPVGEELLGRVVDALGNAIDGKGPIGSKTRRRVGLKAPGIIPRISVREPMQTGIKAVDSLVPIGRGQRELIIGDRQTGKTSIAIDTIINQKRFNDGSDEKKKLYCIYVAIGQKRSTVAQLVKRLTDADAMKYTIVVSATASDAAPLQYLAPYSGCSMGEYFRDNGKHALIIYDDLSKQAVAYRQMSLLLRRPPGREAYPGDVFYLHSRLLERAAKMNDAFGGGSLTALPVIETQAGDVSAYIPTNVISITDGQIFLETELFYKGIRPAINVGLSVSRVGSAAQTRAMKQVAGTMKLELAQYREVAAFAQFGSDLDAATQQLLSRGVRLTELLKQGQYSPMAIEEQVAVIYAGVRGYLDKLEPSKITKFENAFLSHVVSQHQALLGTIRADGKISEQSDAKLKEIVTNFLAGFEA
Series [7] concerns the molecule itself. In words: Western blot of subcellular fractions of SHMOOSE-treated SH-SY5Y cells (FIG. 4A). As for the experimental part:
Cytosolic, nuclear, and mitochondrial fractions were prepared from cultured SH-SY5Y cells. To extract nuclei, cells were washed in ice-cold DPBS and resuspended in fractionation buffer containing 10 mM HEPES pH 7.6, 3 mM MgCl2, 10 mM KCl, 5% (v/v) glycerol, 1% Triton-X100, and protease/phosphatase inhibitors for 15 minutes, followed by centrifugation for 5 minutes at 250×g and 4° C. The resulting supernatant was further centrifuged once more at 18,000×g for 10 minutes at 4° C. to obtain a relatively pure cytoplasmic fraction. The original pellet prior to the 18,000×g centrifugation was washed in 10 mM HEPES pH 7.6, 1.5 mM MgCl2, 10 mM KCl, and protease/phosphatase inhibitors and centrifuged at 250×g and 4° C. The washed pellet was then resuspended in nuclear extraction buffer containing 20 mM HEPES pH 7.6, 1.5 mM MgCl2, 420 mM NaCl, 25% (v/v) glycerol, 0.2 mM EDTA, and protease/phosphatase inhibitors, followed by three sonication periods of 5 seconds (separated by 10 seconds) with 30% amplitude on ice. The sonicated pellet was centrifuged at 18,000×g for 10 minutes at 4° C. to obtain a relatively pure nuclear lysate. To extract mitochondria, cells were washed in ice-cold DPBS and resuspended in 2 ml hypotonic buffer containing 10 mM NaCl, 1.5 mM MgCl2, and 10 mM Tris-HCl pH 7.5 for 7.5 minutes. […]

For the molecule “MPPCLTTWLSQLLKDNSYPLVLGPKNFGATPNKSNNHAHYYNHPNPDFPNSPHPYHPR [SHMOOSE]”, in series [1], the “toxic effects and behavior changes” value is on record as “did not display toxic effects nor behavior changes”. Moreover, in series [2], the entry into circulation entry is “goes into the blood stream” and the half-life result is listed as “strong half-life”.

For “MPPCLTTWLSQLLKDNSYPLVLGPKNFGATPNKSNNHAHYYNHPNPNFPNSPHPYHPR [SHMOOSE.D47N]”, in series [3], the “protection against cell death” value is given as “did not similarly protect cells”. Also, the binding to mitofilin result in series [4] is “confirming binding”. The “basal cell oxygen consumption rate (in words)” value in series [5] is given as “but not mutant SHMOOSE.D47N, boosts basal cell oxygen consumption rate”. For the same molecule, in series [5] (after oligomycin and FCCP, 24 hours incubation), the mitochondrial spare capacity entry is listed as “boosted mitochondrial spare capacity”.

B1: SHMOOSE (Small Human Mitochondrial Open reading frame Over the SErine-tRNA) peptide (peptide)
peptide: MPPCLTTWLSQLLKDNSYPLVLGPKNFGATPNKSNNHAHYYNHPNPDFPNSPHPYHPR
notes: Endogenous SHMOOSE in Western blots is treated as the same molecule; also called wild type SHMOOSE; synthetic SHMOOSE
With B1, the results for the binding result in series [6] and in series [7] were “no binding” and “binds”, respectively.
